In US20100248390A1, “COMPOSITIONS AND METHODS FOR IDENTIFYING LIGANDS OF ODORANT RECEPTORS” (DUKE UNIVERSITY, priority 2009, published 2010):

What was measured:
[1] = test system: mouse odorant receptors (ORs); assay: CRE-luciferase assay of odorant receptor activation (Dual-Glo, Hana3A cells, RTP1S), dose-response EC50; type: cell-based; conditions: 0 = no response; for log EC50, MOR138-1: receptor MOR138-1; for log EC50, MOR139-1: receptor MOR139-1; for log EC50, MOR189-1: receptor MOR189-1; for log EC50, MOR272-1: receptor MOR272-1; for log EC50, MOR273-1: receptor MOR273-1
MOR2-1 = assay: CRE-luciferase assay of odorant receptor activation, enantiomeric pairs; type: cell-based, mouse; conditions: CRE-luciferase in Hana3A cells; at some doses; compared with the other enantiomer; FIG. 6
Excerpt: OR open reading frames were amplified from genomic DNA using proofreading KOD DNA polymerase (Toyobo/Novagen) and subcloned into pCI expression vectors (Promega) containing the first 20 residues of human rhodopsin (Rho tag). The sequences of the cloned receptors were verified by sequencing (3100 Genetic Analyzer, ABI Biosystems). Immunocytochemistry and FACS analysis. […] For FACS analysis, phycoerythrin (PE)-conjugated anti-mouse IgG (Jackson Immunologicals) was used. In order to monitor the transfection efficiency, Green Fluorescent Protein (GFP) was co-transfected with the OR. The intensity of receptor cell surface expression was calculated as the ratio of PE and GFP expression. 7-aminoactinomycin D (Calbiochem) was added before flow cytometry to mark dead cells which were excluded from the analysis. The gate and mean of PE positive cells was normalized by GFP values. Luciferase assay. […] All luminescence values were divided by the Renilla Luciferase activity to control for transfection efficiency in a given well. […] Each comparison was performed in triplicate; statistical significance was assessed by t-test (uncorrected for multiple comparisons). […] For all remaining odorant pairs the Pearson correlation between EC50 vectors and the Euclidean distance between descriptor vectors was calculated. The Pearson correlation between these two sets of distances was then measured. […]

MOR271-1 = assay: as above; type: cell-based, mouse; conditions: CRE-luciferase in Hana3A cells; (+) versus (−) enantiomer; FIG. 6
Excerpt: (§1) Cloning mouse and human ORs. 219 mouse and 245 human odorant receptors were cloned with sequence information from The Olfactory Receptor Database (Healy et al., Chemical Senses 22, 321-6 (1997); herein incorporated by reference in its entirety). […] OR open reading frames were amplified from genomic DNA using proofreading KOD DNA polymerase (Toyobo/Novagen) and subcloned into pCI expression vectors (Promega) containing the first 20 residues of human rhodopsin (Rho tag). The sequences of the cloned receptors were verified by sequencing (3100 Genetic Analyzer, ABI Biosystems). Immunocytochemistry and FACS analysis. […] The intensity of receptor cell surface expression was calculated as the ratio of PE and GFP expression. […] Luminescence was measured using a Wallac Victor 1420 plate reader (Perkin-Elmer). All luminescence values were divided by the Renilla Luciferase activity to control for transfection efficiency in a given well. Normalized luciferase activity was calculated using the formula (LN−Lmin)/(Lmax−Lmin), where LN is the luminescence of firefly luciferase in response to the odorant, Lmin is the minimum luciferase value on a plate or set of plates, and Lmax is the maximum luciferase value on a plate or set of plates. The data was analyzed using Microsoft Excel and GraphPad Prism 4. […]

MOR107-1 = assay: as above; type: cell-based, mouse; conditions: CRE-luciferase in Hana3A cells; (+) versus (−) enantiomer; FIG. 6
Excerpt: as §1

[2] = target: T1, human odorant receptors (ORs) (Homo sapiens, UniProt Q8NHC4); assay: CRE-luciferase assay of odorant receptor activation (Dual-Glo, Hana3A cells, RTP1S), dose-response EC50; type: cell-based; conditions: receptor OR10J5; read-out: log EC50 of odorant at OR10J5 (0 = no response) (converted)
T1 construct: OR open reading frames were amplified from genomic DNA; expressed in transfected cells; host or cells: Hana3A cells, co-transfected with RTP1S, CRE-luciferase and pRL-SV40
T1 sequence (Q8NHC4 1-309): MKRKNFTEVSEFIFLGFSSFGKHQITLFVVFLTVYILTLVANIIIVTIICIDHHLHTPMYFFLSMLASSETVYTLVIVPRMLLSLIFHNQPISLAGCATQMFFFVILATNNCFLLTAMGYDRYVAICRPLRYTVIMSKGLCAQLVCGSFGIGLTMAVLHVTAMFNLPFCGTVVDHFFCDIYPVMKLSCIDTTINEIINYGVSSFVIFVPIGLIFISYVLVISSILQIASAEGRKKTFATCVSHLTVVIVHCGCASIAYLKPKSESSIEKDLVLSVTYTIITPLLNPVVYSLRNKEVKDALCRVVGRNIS
Excerpt: Cloning mouse and human ORs. […] OR open reading frames were amplified from genomic DNA using proofreading KOD DNA polymerase (Toyobo/Novagen) and subcloned into pCI expression vectors (Promega) containing the first 20 residues of human rhodopsin (Rho tag). The sequences of the cloned receptors were verified by sequencing (3100 Genetic Analyzer, ABI Biosystems). Immunocytochemistry and FACS analysis. […] For FACS analysis, phycoerythrin (PE)-conjugated anti-mouse IgG (Jackson Immunologicals) was used. In order to monitor the transfection efficiency, Green Fluorescent Protein (GFP) was co-transfected with the OR. The intensity of receptor cell surface expression was calculated as the ratio of PE and GFP expression. 7-aminoactinomycin D (Calbiochem) was added before flow cytometry to mark dead cells which were excluded from the analysis. The gate and mean of PE positive cells was normalized by GFP values. Luciferase assay. […] Odorant receptor activation leads to an increase in intracellular cAMP; CRE-luciferase (Stratagene) was used to measure this change. […] Hana3A cells were plated on poly-D-lysine-coated 96-well plates (BioCoat; Becton Dickinson). […] For each 96-well plate transfected, 1 μg of CRE-Luc, 1 μg of pRL-SV40, 5 μg of odorant receptor plasmid, and 1 μg of RTP1S was used. Approximately 24 hours post transfection, the medium was replaced with CD293 chemically defined medium (Gibco) and the plate was incubed for 30 min at 37° C. The medium was then replaced with 25 μL of odorant solution diluted in CD293 and the plate was incubated for 4 hrs at 37° C. and 5% CO2. The manufacturer's protocols for measuring luciferase and Renilla luciferase activities was followed. […] All luminescence values were divided by the Renilla Luciferase activity to control for transfection efficiency in a given well. Normalized luciferase activity was calculated using the formula (LN−Lmin)/(Lmax−Lmin), where LN is the luminescence of firefly luciferase in response to the odorant, Lmin is the minimum luciferase value on a plate or set of plates, and Lmax is the maximum luciferase value on a plate or set of plates. The data was analyzed using Microsoft Excel and GraphPad Prism 4. Screening procedure. The entire OR library was stimulated with eight separate odorant mixtures formed from 93 odorants (FIG. 12). […] A comparison between the 93 individual odorants at a 100 μM dose and a no-odor control was performed for all 290 […]. Each comparison was performed in triplicate; statistical significance was assessed by t-test (uncorrected for multiple comparisons). […] A single odorant was used on each plate to avoid cross-contamination, and each OR odorant dose was tested at least three times. The data was fit to a sigmoidal curve. […] Physicochemical descriptors. […] Receptor descriptors. […] Correlations between descriptors and responses. […] All odorants for which there were fewer than 3 responsive receptors were eliminated. […] The Pearson correlation between these two sets of distances was then measured. Optimizing descriptors. […] In this method one begins with an empty set of descriptors. Each descriptor is combined with the previous set of descriptors and correlation values are computed for all of these candidate sets of descriptors. To reduce overfitting, the data is randomly divided into ten subsets and correlation values are computed for each leave-one out subset. The final correlation coefficient for each set of descriptors is the average of the correlation coefficients for each subset.
The entire OR library was stimulated with one of 8 odorant mixtures drawn from 93 odorants chosen to represent diverse functional groups, sizes, and structures (Table 3). Each mixture was applied at five different concentrations. […] The 93 odorants were then applied individually at 100 μM to the 290 mixture-responsive ORs.

[3] = target: T2, mouse odorant receptors (ORs) (Mus musculus, UniProt P23275); assay: as above; type: cell-based; conditions: receptor MOR256-17; read-out: log EC50 of odorant at MOR256-17 (0 = no response) (converted)
T2 construct: OR open reading frames were amplified from genomic DNA; expressed in transfected cells; host or cells: Hana3A cells, co-transfected with RTP1S, CRE-luciferase and pRL-SV40
T2 sequence (P23275 1-312): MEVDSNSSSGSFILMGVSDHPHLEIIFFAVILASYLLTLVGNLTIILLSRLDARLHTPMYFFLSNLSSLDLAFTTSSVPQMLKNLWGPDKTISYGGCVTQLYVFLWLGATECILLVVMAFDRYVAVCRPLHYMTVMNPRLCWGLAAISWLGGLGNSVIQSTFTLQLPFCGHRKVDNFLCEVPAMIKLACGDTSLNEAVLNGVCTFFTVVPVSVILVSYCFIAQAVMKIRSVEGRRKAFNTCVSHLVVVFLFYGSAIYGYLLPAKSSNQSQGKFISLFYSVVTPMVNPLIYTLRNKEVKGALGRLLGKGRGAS

log EC50, MOR138-1 [1] | log EC50, MOR139-1 [1] | log EC50, MOR189-1 [1] | log EC50, MOR272-1 [1] | log EC50, MOR273-1 [1] | Structure (SMILES) | other results
 |  |  |  |  | CCC(C(=O)O)c1ccccc1 (single isomer, unassigned; (+)) [(+) enantiomer of 2-phenylbutyric acid, (+)-2-Phenylbutyric acid] | log EC50, MOR2-1 ([1]; receptor MOR2-1): −3.499; response of MOR2-1 (MOR2-1): responded more strongly
−4.626 | −3.773 | −4.423 | −4.35 | −4.073 | CC1(C)C(=O)[C@@]2(C)CCC1C2 (single isomer, unassigned; (+)) [(+) enantiomer of fenchone, (+)-Fenchone] | activation of MOR271-1 (MOR271-1): only activated by the (+) enantiomer; log EC50, MOR271-1 ([1]; receptor MOR271-1): −4.859
−4.481 | −3.879 | −4.239 | −3.558 | −5.231 | CC1(C)C(=O)[C@]2(C)CCC1C2 (single isomer, unassigned; (-)) [(−) enantiomer of fenchone, (−)-Fenchone] | activation of MOR107-1 (MOR107-1): activated only by the (−) enantiomer; log EC50, MOR107-1 ([1]; receptor MOR107-1): −4.302
 |  |  |  |  | CC(C)(O)CCCC1=CCC(C=O)CC1 (stereo not drawn) [Lyral] | EC50 [2]: 324 µM; EC50 [3]: 55.6 µM
